Test results published in patent US11819499B2, “Single-dose, ready-to-use injectable formulations” (BioSplice Therapeutics, Inc., priority 2016, dated 2023).
Blank lines part the entries; values can stand above or below the molecule they belong to.

Key:
Format in all cases: physicochemical
[1] = Exposure to relative humidity / air followed by XRD
[2] = Dynamic vapor sorption (DVS) scan; conditions: at 90% RH
From the text: The purity of the Form 13 sample was 98.8%; the KF of an undried Form 13 sample was 35.7%.

[3] = Drying or heating in a DSC chamber followed by XRD (form conversion)
Experimental: The Form 1 solid was dried at 75° C. under vacuum overnight, and XRD, DSC, and TGA scans were performed. […] However, the DSC scans indicated the absence of endotherm. The loss of the early peak on the DSC scan had no effect on the XRD trace, showing that the wide endotherm between 50-100° C. on DSC scan was due to the free solvent.
The Form 1 solid was heated in a DSC chamber to 305° C. (past the endotherm/exotherm around 280° C.), and then scanned by XRD. […] It can be concluded that the endotherm/exotherm around 280° C. might be due to melting/crystallization events.
The Form 2 solid was heated in a DSC machine to 90° C. (past the wide endotherm between 50-100° C.); to 270° C. (past the endotherm/exotherm around 240° C.); and finally to 330° C. (past the […]). The residual solid was analyzed by XRD. […] The wide endotherm between 50-100° C. might be free solvent or hydrate. […] Thus, the exotherm around 290° C. was a re-crystallization event. According to an XRD and DSC overlay, the behavior of Form 2* was similar to Form 2.
This has been confirmed for Forms 1 and 2.
Form 13 solid was heated in a DSC chamber to 170° C. (past the endotherm between 50-100° C.), and then scanned by XRD. […] It can be concluded that the endotherm between 50-100° C. is due to bonded water.
Form 13 solid was heated in a DSC chamber to 330° C. (past the endotherm/exotherm around 300° C.), and then scanned by XRD. […] It can be concluded that the endotherm/exotherm is due to melting/crystallization events.

[4] = Exposure to relative humidity / air followed by XRD; remark: listed apart in the source
From the text: FIGS. 15A-15D are scans of Form 1 in the presence of increasing relative humidity (RH), an example of a non-stoichiometric or stoichiometric hydrate of polymorph Form 1 of the compound of Formula (I). FIG. 15A is an x-ray powder diffraction scan of Form 1 exposed to 10% RH as the anhydrous Form 1. FIG. 15B is an x-ray powder diffraction scan of Form 1 exposed to 20% RH as a partial hydrate of Form 1. FIG. 15C is an x-ray powder diffraction scan of Form 1 exposed to 30% RH as a hydrate of Form 1 (≈10-12% water uptake). FIG. 15D is an x-ray powder diffraction scan of Form 1 exposed to 90% RH as a full hydrate of Form 1 (≈17-20% water uptake). […] The hydrate lost its water below 30% RH. […] The crystal lattice of Form 1 expanded when water was sorbed, giving rise to XRD peaks at ˜5, ˜7 and ˜11 degrees while maintaining the main XRD pattern. The hydrates of Form 1 of a compound of Formula (I) (Form 11) were fully reversible, and lost water when exposed to % RH of less than 20%, turning Form 11 to hydrated forms of Form 1 and to the anhydrous Form 1. Solvates 1 and 2 solids were exposed to air overnight, and then analyzed by XRD. After the analysis, the solids were dried at 50° C. under vacuum, and then analyzed by XRD again.

[5] = Competitive slurry experiments between polymorph forms (15 forms mixed, 3-5 days, XRD); conditions: water at RT and 50° C.
Experimental: In order to find out the thermodynamic stability between the different forms, several competitive slurry experiments were carried out. Form 1, Form 2, Form 2*, Form 3, Form 4, Form 4*, Form 4**, Form 5, Form 7, Form 8, Form 9, Form 10, Form 11, Form 11*, and Form 13 (10 mg for each) was mixed and slurried in 2 mL of solvent at both RT and 50° C. The solids were slurried for 3-5 days and then analyzed by XRD.

[6] = Reslurry experiments (polymorph screen) in 39 pure and binary solvents at RT and 50° C. for 5 days, XRD of wet and dry samples
Experimental: Reslurry experiments in various solvents were performed. Approximately 30-80 mg of the starting solid (a non-stoichiometric or stoichiometric hydrate of Form 1 having between 1% and about 20% by weight water) was slurried in 39 different solvents (pure and binary solvents; the ratio of organic solvent/water (V/V) was 95%/5%) at RT and 50° C. for 5 days. Three solvates, one hydrate, and eleven non-solvated forms were identified. […] XRD of both wet and dry samples were scanned (FIG. 12A (dry sample)).
The slurry experiments identified 3 solvated forms from wet samples (Solvates 1, 2, and 3); 2 non-stoichiometric hydrates of Form 1 (Forms 12 and 13); and 11 non-solvated forms (Forms 1-11). In some instances, similar XRD scans with minor differences were obtained. These were considered to be part of the same class (e.g., the same form). For example, XRD scans of Form 2 and Form 2* were similar and were considered to belong to the same class. The solvated forms were obtained from wet sample analysis; after drying, the sample indicated a different XRD.
Solvate 1 was obtained from acetone at RT, and after drying, a low crystallinity solid was generated. Solvate 2 was obtained from acetone (at RT) and acetone/water (at RT), and after drying, Form 4** was generated. Solvate 3 was obtained from EtOH/water at RT, and after drying, Form 2 was generated.

[7] = Solubility of the starting solid by the gravimetric method; conditions: at RT and at 50° C. in all solvents tested except DMF and DMSO
[8] = reslurry in Acetonitrile/water (5% water), 50° C.
[9] = reslurry in DCM/water (5% water), 50° C.
[10] = reslurry in DCM/water (5% water), RT
[11] = reslurry in Heptane/water (5% water), 50° C.
[12] = reslurry in Heptane/water (5% water), RT
[13] = reslurry in IPAc/water (5% water), 50° C.
[14] = reslurry in MA/water (5% water), RT
[15] = reslurry in MIBK/water (5% water), 50° C.
[16] = reslurry in MeOH/water (5% water), 50° C.
[17] = reslurry in MtBE/water (5% water), 50° C.
[18] = reslurry in Toluene/water (5% water), 50° C.
[19] = reslurry in Toluene/water (5% water), RT
[20] = reslurry in n-Butanol/water (5% water), 50° C.
[21] = reslurry in n-Butanol/water (5% water), RT
[22] = reslurry in n-Butyl acetate/water (5% water), 50° C.
[23] = reslurry in n-Butyl acetate/water (5% water), RT

RH above which Form 1 tended to convert to hydrate of Form 1 (Form 13) [1]: above 4050%
water absorption (DVS scan) [2]: 17%
XRD after drying ([3]; dried at 75° C. under vacuum overnight): no change
form after heating (XRD) ([3]; heated in a DSC chamber to 305° C.): converted to Form 9
form when heated to just before melting ([3]; heated to just before melting at 364° C.): convert to Form 9
water uptake ([4]; exposed to 30% RH (FIG. 15C), hydrate of Form 1): 10-12%
water uptake ([4]; exposed to 90% RH (FIG. 15D), full hydrate of Form 1): 17-20%
form when exposed to air ([4]; exposed to air): converts to Form 13
Structure (SMILES): CC(C)CC(=O)Nc1cncc(-c2ccc3[nH]nc(-c4nc5c(-c6cccc(F)c6)cncc5[nH]4)c3c2)c1 [Form 1, N-(5-(3-(7-(3-fluorophenyl)-3H-imidazo[4,5-c]pyridin-2-yl)-1H-indazol-5-yl)pyridin-3-yl)-3-methylbutanamide]

thermodynamic stability between forms (competitive slurry) [5]: most stable
Dry (form by XRD) [6, 8]: Form 13
Wet (form by XRD) [6, 8]: Form 13
Dry (form by XRD) ([6]; reslurry in DCM, 50° C.): Form 13
Wet (form by XRD) ([6]; reslurry in DCM, 50° C.): Form 13
Dry (form by XRD) [6, 9]: Form 1
Wet (form by XRD) [6, 9]: Form 13
Dry (form by XRD) [6, 10]: Form 1
Wet (form by XRD) [6, 10]: Form 13
Dry (form by XRD) ([6]; reslurry in Heptane, 50° C.): Form 13
Wet (form by XRD) ([6]; reslurry in Heptane, 50° C.): Form 13
Dry (form by XRD) [6, 11]: Form 1
Wet (form by XRD) [6, 11]: Form 13
Dry (form by XRD) [6, 12]: Form 12
Wet (form by XRD) [6, 12]: Form 13
Dry (form by XRD) [6, 13]: Form 13
Wet (form by XRD) [6, 13]: Form 13
Dry (form by XRD) [6, 14]: Form 1
Wet (form by XRD) [6, 14]: Form 13
Dry (form by XRD) [6, 15]: Form 1
Wet (form by XRD) [6, 15]: Form 13
Dry (form by XRD) ([6]; reslurry in MeOH, RT): Form 1
Wet (form by XRD) ([6]; reslurry in MeOH, RT): Form 13
Dry (form by XRD) [6, 16]: Form 13
Wet (form by XRD) [6, 16]: Form 13
Dry (form by XRD) [6, 17]: Form 13
Wet (form by XRD) [6, 17]: Form 13
Dry (form by XRD) [6, 18]: Form 13
Wet (form by XRD) [6, 18]: Form 13
Dry (form by XRD) [6, 19]: Form 1
Wet (form by XRD) [6, 19]: Form 13
Dry (form by XRD) [6, 20]: Form 1
Wet (form by XRD) [6, 20]: Form 13
Dry (form by XRD) [6, 21]: Form 13
Wet (form by XRD) [6, 21]: Form 13
Dry (form by XRD) [6, 22]: Form 1
Wet (form by XRD) [6, 22]: Form 13
Dry (form by XRD) [6, 23]: Form 12
Wet (form by XRD) [6, 23]: Form 13
Dry (form by XRD) ([6]; reslurry in water, 50° C.): Form 13
Wet (form by XRD) ([6]; reslurry in water, 50° C.): Form 13
Dry (form by XRD) ([6]; reslurry in water, RT): Form 1
Wet (form by XRD) ([6]; reslurry in water, RT): Form 13
water absorption (DVS scan) [2]: 17%
form after heating (XRD) ([3]; heated in a DSC chamber to 170° C.): converted to Form 1
form after heating (XRD) ([3]; heated to 330° C.): converted to Form 9
form upon drying ([3]; upon drying): converted to Form 1
RH below which the hydrate lost its water ([4]; relative humidity): below 30%
Structure (SMILES): CC(C)CC(=O)Nc1cncc(-c2ccc3[nH]nc(-c4nc5c(-c6cccc(F)c6)cncc5[nH]4)c3c2)c1 [Form 13, N-(5-(3-(7-(3-fluorophenyl)-3H-imidazo[4,5-c]pyridin-2-yl)-1H-indazol-5-yl)pyridin-3-yl)-3-methylbutanamide]

Solubility (in words) [7]: low solubility
Structure (SMILES): CC(C)CC(=O)Nc1cncc(-c2ccc3[nH]nc(-c4nc5c(-c6cccc(F)c6)cncc5[nH]4)c3c2)c1 [starting solid, N-(5-(3-(7-(3-fluorophenyl)-3H-imidazo[4,5-c]pyridin-2-yl)-1H-indazol-5-yl)pyridin-3-yl)-3-methylbutanamide]
